Results taken from patent US8735152B2, “Methods for inducing cell death in pluripotent stem cells and differentiated cells other than cardiac myocytes” (Daiichi Sankyo Company, Limited, priority 2009, dated 2014).

Legend:
Assay type in all cases: cell-based
[1] = tested on: marmoset embryonic stem cells; experiment: Cell death inducing effect on marmoset embryonic stem cells (TMRM FACS, 5-day adherent culture); settings: 0.45 M, 2 hours
Description: The marmoset embryonic stem cells were obtained from the Central Institute for Experimental Animals (Stem Cells, 2005 October; 23(9): 1304-13). The cells were cultured basically in accordance with the method described in this document. To be more specific, the marmoset embryonic stem cells were cultured to maintain their undifferentiated state using mouse embryonic fibroblasts (MEF) that had been inactivated for growth by treatment with mitomycin C. The culture medium of KO-DMEM (GIBCO), supplemented with 20% KO-SERUM (GIBCO), 1.6 mM L-glutamine, 0.1 mM non-essential amino acids (MEM), 0.2 mM β-mercaptoethanol (2-ME; Sigma), 100 IU/ml penicillin, 100 μg/ml streptomycin sulfate, and 8 ng/ml recombinant human leukemia inhibiting factor (LIF; Chemicon) or recombinant human basic fibroblast growth factor (bFGF; Peprotech) was used. Upon passaging, the cells were treated with 0.1% type III collagenase (Wortington) at 37° C. for 10 minutes to separate ES colonies. […] Thereafter, the cells treated with mannitol for 2 hours and the control cells were analyzed by FACS for the level of mitochondrial membrane potential on the basis of the fluorescent intensity of TMRM to check the state of survival of the stem cells; the results are shown in FIG. 5. […]

[2] = tested on: human embryonic stem cells; experiment: Cell death inducing effect on human embryonic stem cells (TMRM FACS, 5-day adherent culture); settings: 0.45 M
Description: The human embryonic stem cells were obtained from Stem Cell Research Center, Institute for Frontier Medical Sciences, Kyoto University (ES cell center sponsored by the National Bio-Resource Project) (Suemori, H et al., Biochem. Biophys. Res. Commun., Vol. 345, 2006, pp. 926-932). The cells were cultured basically in accordance with the method described in this document. To be more specific, the human embryonic stem cells were cultured to maintain their undifferentiated state using mouse embryonic fibroblasts (MEF) that had been inactivated for growth by treatment with mitomycin C. The culture medium of F12/DMEM (1:1) (SIGMA; Product No. D6421), supplemented with 20% KO-SERUM (GIBCO), 1.6 mM L-glutamine, 0.1 mM non-essential amino acids (MEM), 0.1 mM β-mercaptoethanol (2-ME; Sigma), 100 IU/ml penicillin, 100 μg/ml streptomycin sulfate, and recombinant human basic fibroblast growth factor (bFGF; Reprotech) was used. Upon passaging, the cells were treated with 0.1% type III collagenase (Wortington) at 37° C. for 10 minutes to separate embryonic stem cell colonies. After passaging, the cells were dispersed with each other using TE (0.25% trypsin (GIBCO) and 1 mM EDTA) and in accordance with a published document (Watanabe, K. et al., Nat. Biotechnol., 2007, 25: 681-686, Epub 2007 May 27), 10 μM of a ROCK inhibitor (Y27632) was added to suppress cell death. At the same time, the mitochondria in the live cells were stained with 50 nM TMRM. Part of the stained cells were treated with an α-MEM culture medium containing 0.45 M mannitol (approximately equivalent to 720 mOsm/kg) for 2, 3 or 4 hours and three samples were prepared from these cells; the rest of the stained cells were treated with a mannitol-free α-MEM culture medium for 2 hours and a sample was prepared from these cells as a control. In the control, cells were aggregated with each other to make masses, so before FACS analysis, the treated groups and the control were given another treatment with trypsin and EDTA to disperse the cells. The cells treated with mannitol for 2, 3 or 4 hours and the control cells were analyzed by FACS for the level of mitochondrial membrane potential on the basis of the fluorescent intensity of TMRM to check the state of survival of the stem cells; the results are shown in FIG. 7. […] In addition, the TMRM-stained cells were photographed, both for the case of 2-h treatment with mannitol and for the control (FIG. 8)). […] Changes in the mitochondrial membrane potential were observed using the experimental technique of Example 5, provided that the human embryonic stem cells were treated not with mannitol, but with 0.45 M of various other saccharides (sugar alcohols: sorbitol and xylitol; sugars: sucrose and glucose; betaines: trimethylglycine) (approximately equivalent to 750-780 mOsm/kg) for 2 hours.

[3] = tested on: human induced pluripotent stem cells (iPS cells); experiment: Cell death inducing effect on human induced pluripotent stem cells (TMRM, FACS); settings: 0.45 M, 2 hours
Description: The human iPS cells were obtained from Stem Cell Research Center, Institute for Frontier Medical Sciences, Kyoto University (ES cell center sponsored by the National Bio-Resource Project). The cells were cultured basically in accordance with the same method as that in the case of human embryonic stem cells, i.e., in accordance with the same method as described in Example 5. After passaging, the cells were dispersed with each other using TE (0.25% trypsin (GIBCO) and 1 mM EDTA) and in accordance with a published document (Watanabe, K. et al., Nat. Biotechnol., 2007, 25: 681-686, Epub 2007 May 27), 10 μM of a ROCK inhibitor (Y27632) was added to suppress cell death. At the same time, the mitochondria in the live cells were stained with 50 nM TMRM. […] In the control, cells were aggregated with each other to make masses, so before FACS analysis, both samples were given another treatment with trypsin and EDTA to disperse the cells; thereafter, the samples were analyzed by FACS for the level of mitochondrial membrane potential on the basis of the fluorescent intensity of TMRM to check the state of survival of the stem cells; the results are shown in FIG. 12. […]

[4] = tested on: mouse embryonic stem cells; experiment: Cell death inducing effect of low-concentration mannitol on mouse embryonic stem cells (adhesion, morphology); settings: 0.2 M
Description: Embryonic stem cells as cultured by the method described in Example 1 were cultured for an additional 48 or 72 hours in an α-MEM culture medium containing 0.2 M mannitol (approximately equivalent to 480 mOsm/kg); thereafter, the stem cells were checked for the state of their survival in terms of cell adhesion or non-adhesion and by morphological observation; the results are shown in FIG. 15.

## OC[C@@H](O)[C@@H](O)[C@H](O)[C@H](O)CO [mannitol]
[1]
  Mitochondrial membrane potential (TMRM fluorescence, FACS): almost all of the cells treated with mannitol for 2 hours had lost membrane potential
[1]; then 5 days adherent culture
  Survival after adherent culture for 5 days: none of the cells exposed to mannitol were found alive
[2]; 2 hours
  Mitochondrial membrane potential (TMRM fluorescence, FACS): almost all of the cells treated with mannitol for 2 hours had lost membrane potential
[2]; 2 hours, photographs of TMRM-stained cells
  Self-aggregation of cells immediately after treatment: remained dispersed
[2]; then 5 days adherent culture
  Survival after adherent culture for 5 days: none of the cells exposed to mannitol were found live
[3]
  Mitochondrial membrane potential (TMRM fluorescence, FACS): almost all of the cells treated with mannitol for 2 hours had lost membrane potential
[4]; 48 hours
  State of survival (cell adhesion, morphology): almost all colonies had already detached from the culture dish
[4]; 72 hours
  State of survival (cell adhesion, morphology): the cells were completely dead
